Active and inactive are the calls of the source. No rule for the calls is given here.
Key:
[1] = target: BoNT/ALC; assay: confirmation, biochemical, FRET, cleavage-site specific substrates (AID 651691); details: FRET protease cleavage assay, BoNT/A LC or LF
[2] = target: LF; assay: as above; details: FRET protease cleavage assay, BoNT/A LC or LF

## O=[N+]([O-])c1ccc(C2=NN(c3ccccc3)C(c3ccco3)C2)cc1 (stereo not given)
[1]
  IC50: > 20000 nM (inactive)

## O=C(Nc1ccc2nc(-c3cccs3)c(-c3cccs3)nc2c1)NC1CC1
[1]
  IC50: > 20000 nM (inactive)
[2]
  IC50: inactive

## O=C(Nc1ccc2nc(-c3cccs3)c(-c3cccs3)nc2c1)N1CCCCC1
[1]
  IC50: 1200 nM

## O=C(Nc1ccc2nc(-c3cccs3)c(-c3cccs3)nc2c1)N1CCOCC1
[1]
  IC50: > 20000 nM (inactive)

## O=[N+]([O-])c1ccc(N2N=C(c3ccccc3)CC2c2ccccc2)cc1 (stereo not given)
[1]
  IC50: 1000 nM

## Clc1ccc(-c2cn3nc(-c4ccccc4)c(-c4ccccc4)nc3n2)cc1
[1]
  IC50: 700 nM
[2]
  IC50: inactive

## c1ccc(-c2cn3nc(-c4ccccc4)c(-c4ccccc4)nc3n2)cc1
[1]
  IC50: 500 nM

## COc1ccccc1N1N=C(c2ccc([N+](=O)[O-])cc2)CC1c1ccccc1 (stereo not given)
[1]
  IC50: 200 nM

## COc1ccc(C2CC(c3cccs3)=NN2c2nc(C)c(C(C)=O)s2)cc1OC (stereo not given)
[1]
  IC50: 1300 nM

## COc1ccc(-c2cn3nc(-c4ccccc4)c(-c4ccccc4)nc3n2)cc1
[1]
  IC50: 500 nM
[2]
  IC50: inactive

## Cc1ccc(-c2cn3nc(-c4ccccc4)c(-c4ccccc4)nc3n2)cc1
[1]
  IC50: 300 nM
[2]
  IC50: inactive

Source: PubChem BioAssay AID651691 (NMMLSC, 2012)
